Structures can show the parent of a compound that is named as a salt. One block for each compound: values may come before it.
Experiments:
[1] = propranolol enantiomers; cited from earlier work
[2] = test system: Intraocular Pressure (IOP) of Rabbits; assay: Effect on the Intraocular Pressure (IOP) of Rabbits; assay type: in vivo, rabbit (male New Zealand albino); conditions: for % change after treatment (IOP) / IOP, drug-treated: Table 3, 1% solution
Method: The animals were kept in individual cages with free access to food and water. Intraocular pressure was measured using a Digilab model 30R pneumatonometer. The pneumatonometer readings were checked at least twice a day using the Digilab calibration verifier. All measurements were obtained from unrestrained, unanesthetized rabbits. One drop of 0.5% propacaine (Ophthetic-Allergen Pharmaceuticals, Inc.) diluted 1:2 with saline was instilled in each eye immediately prior to IOP measurement. Drugs were administered as 1 or 2.5% solution in buffer pH 7.4 or in saline in both eyes of a group of at least four rabbits. Another group of at least three rabbits served as control and was administered the carrier only. […] Values are given as means ± standard error (S.E.) of the mean. The significance of the change was determined using the student's t-test.

[3] = Hygroscopicity; assay type: physicochemical; conditions: crystals
Method: In a 50 mL round-bottomed flask was placed a solution of oxalic acid (0.20 g, 2.22 mmole) in ether (10 mL). To this solution was added a solution of 5b (0.43 g, 1.3 mmole) in ether. The mixture was stirred at room temperature for 1 hour. The white non-hygroscopic crystals were filtered and dried in vacuo. Yield 0.53 g (97%), m.p. 165°-166° (dec.). NMR (CDCl3) δ 5.3 (s, 2H), 3.9-3.7 (m, 4H), 3.6-3.4 (m, 6H), 1.1 (s, 9H). Anal. (C18 H25 O7 N5), C,H,N.

[4] = test system: resting heart rate of rats; assay: Effect on resting heart rate in rats; assay type: in vivo, rat (male Sprague-Dawley); conditions: 6 mg/kg i.v. (Example 6)
Method: (§1) Groups of seven male Sprague-Dawley rats weighing 150-250 g were used. Each animal was anesthetized with sodium pentobarbital (50 mg/kg) and the jugular vein was cannulated with PE50 tubing. This cannula was subcutaneously threaded around the neck and exteriorized dorsally. The cannula was filled with heparin solution ([…]) and sealed with a solid 22-gauge stylet. Animals were housed in individual stainless steel cages and at least 24 hours were allowed for recovery from the surgery. Food and water were provided ad libitum. On the day of the experiment, the heart rate of each rat was monitored with a plethsmograph and the data recorded on a Physioscribe II recorder. One hour was allowed as an equilibration period before any drugs were administered. Drugs were dissolved in normal saline as 0.3% solution and were administered intravenously at a dose of 6 mg/kg. The resting heart rate was then recorded after 1, 3, 5, 10 and 15 minutes following i.v. injection. […] A control group of seven animals was intravenously administered saline solution and was treated exactly in the same manner as the drug-treated groups. The significance of the difference between the effect of saline solution and the drugs under investigation on the resting heart rate and on isoprenaline tachycardia was analyzed using the student's "t" test. Values are given as mean ±S.E. of the mean. […] (.) carteolol HCl, 1c; .circle. propranolone ketoxime HCl, 6a; (.gradient.) timolone ketoxime oxalate, 6b; (Δ) N-isopropyl timolone ketoxime HCl, 6d; carteolone oxime HCl, 6c; and (---) saline solution. […] Drugs were administered to groups of 5 rats using a stomach tube and the heart rate was recorded for 1 hour. […] A control group of 5 rats was treated exactly in the same manner after the oral administration of the appropriate volume of saline solution.

[5] = test system: isoprenaline-induced tachycardia; assay: Effect on isoprenaline-induced tachycardia in rats (β-adrenergic antagonist activity); assay type: in vivo, rat (male Sprague-Dawley); conditions: rats; 6 mg/kg i.v.; isoprenaline 50 μg/kg s.c.; FIG. 1
Method: as §1

[6] = test system: ocular tissues of rabbits; assay: In vivo distribution-metabolism in ocular tissues of rabbits; conditions: rabbit, in vivo
Method: Adult male New Zealand albino rabbits weighing 2.5-3.5 kg were used. Standard doses of 100 μl of 1% solution of the drugs in saline solution were administered topically to both eyes of each rabbit. After appropriate time intervals (30, 60 and 120 minutes), the animals were sacrificed. Aqueous humor was obtained by making a single puncture at the limbus using a 25 g×5/8" needle attached to 1 cm^3 syringe. Then the cornea and the iris-ciliary body were isolated. The tissues were pooled and homogenized using a Tekmar SDT tissuemizer in ice cold perchloric acid (0.05M) which contained 0.05% sodium metabisulfite as antioxidant. Samples were then rehomogenized in CH3 OH to prepare 10% homogenates, transferred to micro-filters and centrifuged for 20 minutes at 10000 r/minute to precipitate proteins. Aqueous humor was analyzed as such without any further dilution. Aliquots of 5-20 μl of the 10% tissue homogenate samples were analyzed by HPLC.

Structure (SMILES): CC(C)NC[C@@H](O)COc1cccc2ccccc12 [R-(+)-enantiomer]
metabolism relative to S-form [1]: metabolized faster than the S-form

Structure (SMILES): CC(C)NC[C@H](O)COc1cccc2ccccc12 [S-(-)-isomer]
potency relative to R-(+)-enantiomer [1]: about 100 times

Structure (SMILES): CC(C)(C)NCC(O)COc1nsnc1N1CCOCC1 (stereo not shown) [Timolol maleate 1b, reference compound]
% change after treatment (IOP) ([2]; 30 min.): -10.93% | IOP, drug-treated ([2]; 30 min.): 26.00 ± 1.23 mm/Hg | % change after treatment (IOP) ([2]; 1 hr.): 6.65% | IOP, drug-treated ([2]; 1 hr.): 27.25 ± 1.12 mm/Hg | % change after treatment (IOP) ([2]; 2 hr.): 6.78% | IOP, drug-treated ([2]; 2 hr.): 27.21 ± 0.58 mm/Hg | % change after treatment (IOP) ([2]; 3 hr.): 14.35% | IOP, drug-treated ([2]; 3 hr.): 25.00 ± 0.87 mm/Hg | % change after treatment (IOP) ([2]; 4 hr.): 14.77% | IOP, drug-treated ([2]; 4 hr.): 24.88 ± 1.00 mm/Hg | % change after treatment (IOP) ([2]; 5 hr.): 16.92% | IOP, drug-treated ([2]; 5 hr.): 24.25 ± 1.18 mm/Hg | % change after treatment (IOP) ([2]; 6 hr.): 12.37% | IOP, drug-treated ([2]; 6 hr.): 25.58 ± 0.85 mm/Hg | % change after treatment (IOP) ([2]; 8 hr.): 9.80% | IOP, drug-treated ([2]; 8 hr.): 26.33 ± 0.40 mm/Hg | % change after treatment (IOP) ([2]; time zero): 0.00% | IOP, drug-treated ([2]; time zero): 29.19 ± 0.78 mm/Hg

hygroscopicity [3]: non-hygroscopic
Structure (SMILES): CC(C)(C)NCC(COc1nsnc1N1CCOCC1)=NO.O=C(O)C(=O)O [Timolone oxime oxalate 6b, 1-(tert-Butylamino)-3-[(4-morpholino-1,2,5-thiadiazol-3-yl)oxy]-2-propanoneoxime oxalate]
activity on resting heart rate (negative chronotropic action) [4]: highest activity | β-adrenergic antagonist activity against isoprenaline-tachycardia [5]: most effective | % change after treatment (IOP) ([2]; 30 min.): -2.43% | IOP, drug-treated ([2]; 30 min.): 27.75 ± 0.68 mm/Hg | % change after treatment (IOP) ([2]; 1 hr.): -14.56% | IOP, drug-treated ([2]; 1 hr.): 24.30 ± 0.63 mm/Hg | % change after treatment (IOP) ([2]; 2 hr.): -15.61% | IOP, drug-treated ([2]; 2 hr.): 24.00 ± 0.44 mm/Hg | % change after treatment (IOP) ([2]; 3 hr.): -11.64% | IOP, drug-treated ([2]; 3 hr.): 25.13 ± 0.96 mm/Hg | IOP, drug-treated ([2]; 4 hr.): 26.93 ± 0.48 mm/Hg | % change after treatment (IOP) ([2]; 5 hr.): -5.49% | IOP, drug-treated ([2]; 5 hr.): 26.88 ± 0.52 mm/Hg | % change after treatment (IOP) ([2]; 6 hr.): +1.20% | IOP, drug-treated ([2]; 6 hr.): 28.78 ± 0.91 mm/Hg | % change after treatment (IOP) ([2]; 8 hr.): -7.42% | IOP, drug-treated ([2]; 8 hr.): 26.33 ± 0.40 mm/Hg | % change after treatment (IOP) ([2]; time zero): 0.00% | IOP, drug-treated ([2]; time zero): 28.44 ± 0.63 mm/Hg | ocular hypotensive activity compared with parent β-blocker ([2]; same dose levels, rabbits): faster in its onset and shorter in its duration than timolol 1b itself | ocular hypotensive activity (in words) ([2]; topical, rabbits, dose levels used): significant ocular hypotensive activity

Structure (SMILES): CC(C)(C)NCC(O)COc1cccc2c1CCC(=O)N2 (stereo not shown) [carteolol]
detection of parent β-adrenergic antagonist in eye compartments [6]: could not be found in any of the eye compartments
